According to the supplement of paper PMC10307832:

What was measured:
Assay in all cases: relative viability (nuclei count vs DMSO), 5 days (fraction); higher = more cells survive
[1] = compound: O=c1[nH]cc(F)c(=O)[nH]1 [5-Fluorouracil] + CS(=O)(=O)CCNCc1ccc(-c2ccc3ncnc(Nc4ccc(OCc5cccc(F)c5)c(Cl)c4)c3c2)o1 [Lapatinib] (partner 2 µM)
In short: (§1)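 Relative viability divides the nuclei count in treated wells by that in vehicle wells. Lung cancer cell lines were seeded in 1536-well plates, dosed by pin tool the next day, and fixed and stained after 5 days in one step with final 0.05% Triton X-100, 1% formaldehyde and 1 ug/ml Hoechst. Dosing was a single drug or a fixed anchor-drug dose plus five library-drug doses (not always all listed) in √10 steps, and values are medians of duplicate plates imaged at 4×.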

[2] = compound: CN[C@@H]1C[C@H]2O[C@@](C)([C@@H]1OC)n1c3ccccc3c3c4c(c5c6ccccc6n2c5c31)C(=O)NC4 [Staurosporine] + CCNC(=O)c1noc(-c2cc(C(C)C)c(O)cc2O)c1-c1ccc(CN2CCOCC2)cc1 [Luminespib] (partner 0.01 µM)
In short: as §1

[3] = compound: CN[C@@H]1C[C@H]2O[C@@](C)([C@@H]1OC)n1c3ccccc3c3c4c(c5c6ccccc6n2c5c31)C(=O)NC4 [Staurosporine] + O=C(c1cc(Cc2n[nH]c(=O)c3ccccc23)ccc1F)N1CCN(C(=O)C2CC2)CC1 [Olaparib] (partner 8 µM)
In short: as §1

[4] = compound: O=c1[nH]cc(F)c(=O)[nH]1 [5-Fluorouracil] + Nc1ncn([C@H]2C[C@H](O)[C@@H](CO)O2)c(=O)n1 [Decitabine] (partner 2 µM)
In short: as §1

Row | Cell Line | relative viability ([1]; first compound 0.02 µM) | relative viability ([1]; first compound 0.2 µM) | relative viability ([1]; first compound 0.6325 µM) | relative viability ([1]; first compound 2 µM) | relative viability ([2]; first compound 0.005 µM) | relative viability ([2]; first compound 0.05 µM) | relative viability ([2]; first compound 0.1581 µM) | relative viability ([2]; first compound 0.5 µM) | relative viability ([3]; first compound 0.005 µM) | relative viability ([3]; first compound 0.05 µM) | relative viability ([3]; first compound 0.1581 µM) | relative viability ([3]; first compound 0.5 µM) | relative viability ([4]; first compound 0.02 µM) | relative viability ([4]; first compound 0.2 µM) | relative viability ([4]; first compound 0.6325 µM) | relative viability ([4]; first compound 2 µM) | relative viability ([3]; first compound 0.01581 µM) | relative viability ([2]; first compound 0.01581 µM)
1 | 201T | 1.05 | 0.964 | 0.479 | 0.376 | 1.03 | 0.693 | 0.349 | 0.334 | 0.834 | 0.749 | 0.581 | 0.537 | 0.885 | 0.559 | 0.3 | 0.257 | – | –
2 | A549 | 1.09 | 0.656 | 0.456 | 0.135 | – | – | – | – | 0.0788 | 0.126 | 0.034 | 0.0268 | 0.296 | 0.264 | 0.252 | 0.224 | 0.0424 | –
3 | A-427 | 1.02 | 1.07 | 1.07 | 0.792 | 0.712 | 0.231 | 0.159 | 0.149 | 0.694 | 0.284 | 0.189 | 0.139 | 0.526 | 0.603 | 0.544 | 0.479 | 0.482 | 0.463
4 | ABC-1 | 1.33 | 1.23 | 1.24 | 1.13 | 0.261 | 0.147 | 0.156 | 0.0847 | 0.429 | 0.564 | 0.211 | 0.213 | 1.25 | 0.959 | 0.944 | 0.87 | 0.289 | 0.274
5 | BEN | 0.658 | 0.628 | 0.615 | 0.602 | 0.397 | 0.383 | 0.152 | 0.129 | 0.976 | 0.641 | 0.514 | 0.362 | 0.743 | 0.743 | 0.746 | 0.681 | 0.799 | 0.256
6 | CAL-12T | 0.573 | 0.897 | 0.649 | 0.559 | 0.0969 | 0.0596 | 0.109 | 0.109 | 0.441 | 0.252 | 0.148 | 0.163 | – | – | – | – | 0.253 | 0.0675
7 | COR-L23 | 1.03 | 0.921 | 0.48 | 0.253 | 0.262 | 0.083 | 0.0871 | 0.0485 | 0.216 | 0.164 | 0.141 | 0.0662 | 0.452 | 0.449 | 0.412 | 0.254 | 0.189 | 0.324
8 | COR-L 105 | 0.362 | 0.409 | 0.367 | 0.381 | 0.364 | 0.192 | 0.253 | 0.161 | 0.562 | 0.326 | 0.386 | 0.26 | 0.763 | 0.677 | 0.719 | 0.438 | 0.401 | 0.277
9 | Calu-6 | 1.04 | 1.01 | 0.908 | 0.537 | – | – | – | – | 0.483 | 0.201 | 0.106 | 0.092 | – | – | – | – | 0.294 | –
10 | ChaGo-K-1 | – | – | – | – | 0.7 | 0.374 | 0.185 | 0.176 | 0.43 | 0.342 | 0.232 | 0.243 | 0.573 | 0.519 | 0.435 | 0.439 | – | 0.344
11 | EBC-1 | 0.189 | 0.187 | 0.178 | 0.249 | – | – | – | – | 0.485 | 0.165 | 0.159 | 0.149 | – | – | – | – | 0.184 | –
12 | EKVX | – | 0.184 | 0.15 | 0.147 | 0.65 | 0.277 | 0.176 | 0.107 | 0.562 | 0.272 | 0.216 | 0.13 | 0.297 | – | – | – | 0.392 | 0.385
13 | EMC-BAC-2 | 0.968 | 0.975 | 0.858 | 0.907 | 0.844 | 0.24 | 0.216 | 0.211 | 0.245 | 0.172 | 0.177 | 0.19 | 1.01 | 1.08 | 0.97 | 1.01 | 0.162 | 0.33
14 | EPLC-272H | 0.97 | 0.879 | 0.358 | 0.339 | 0.206 | 0.0679 | 0.0575 | 0.075 | 0.41 | 0.139 | 0.0846 | 0.0704 | 0.357 | 0.305 | 0.224 | 0.22 | 0.148 | 0.0928
15 | H3255 | 0.269 | 0.264 | 0.255 | 0.257 | 0.771 | 0.44 | 0.266 | 0.212 | 0.447 | 0.28 | 0.24 | 0.155 | 0.694 | 0.629 | 0.645 | 0.488 | 0.315 | 0.513
16 | HARA | 0.922 | 0.892 | 0.657 | 0.568 | 0.697 | 0.297 | 0.0959 | 0.0973 | 0.682 | 0.156 | 0.126 | 0.131 | 0.519 | 0.533 | 0.605 | 0.488 | 0.363 | –
17 | HCC-15 | 0.967 | 0.898 | 0.533 | 0.314 | 0.303 | 0.219 | 0.169 | 0.165 | 0.613 | 0.532 | 0.286 | 0.205 | 0.751 | 0.711 | 0.63 | 0.476 | – | –
18 | HCC-44 | 1.05 | 0.974 | 0.609 | 0.311 | 0.416 | 0.161 | 0.187 | 0.137 | 1.04 | 0.75 | 0.456 | 0.351 | 1.07 | 0.96 | 0.94 | 0.77 | – | 0.169
19 | HCC-78 | 0.768 | 1.2 | 0.265 | – | – | – | – | – | 0.98 | 0.654 | 0.455 | 0.417 | 0.711 | 0.726 | 0.427 | 0.327 | 0.638 | –
20 | HCC-366 | 0.996 | 0.945 | 0.523 | 0.0471 | – | – | – | – | 0.247 | 0.12 | 0.0287 | 0.0185 | 0.344 | 0.32 | 0.194 | 0.128 | – | –
21 | HCC-827 | 0.159 | 0.203 | 0.191 | 0.187 | 0.997 | 0.13 | 0.139 | 0.121 | 0.666 | 0.467 | 0.322 | 0.22 | 0.298 | 0.431 | 0.36 | 0.297 | 0.5 | 0.532
